Numbers after ± are expanded uncertainties.
Tests used:
[1] = 100 kPa; for speed of sound: Frequency=3 MHz, Sing-around technique in a fixed-path interferometer; for mass density: Vibrating tube method
[2] = molar heat capacity at constant pressure; settings: 100 kPa, Small sample (50 mg) DSC
[3] = molar heat capacity at constant pressure; xn = mol fraction of the nth substance listed; settings: 100 kPa, Liquid, Small sample (50 mg) DSC
[4] = xn = mol fraction of the nth substance listed; settings: 100 kPa, Liquid; for speed of sound: Frequency=3 MHz, Sing-around technique in a fixed-path interferometer; for mass density: Vibrating tube method

SMILES | speed of sound ([1]; 293.15 K, Liquid) [m/s] | mass density ([1]; 293.15 K, Liquid) [kg/m3] | speed of sound ([1]; 298.15 K, Liquid) [m/s] | mass density ([1]; 298.15 K, Liquid) [kg/m3] | speed of sound ([1]; 303.15 K, Liquid) [m/s] | mass density ([1]; 303.15 K, Liquid) [kg/m3] | speed of sound ([1]; 308.15 K, Liquid) [m/s] | mass density ([1]; 308.15 K, Liquid) [kg/m3] | molar heat capacity at constant pressure ([2]; 293.15 K, Liquid) [J/K/mol] | molar heat capacity at constant pressure ([2]; 298.15 K, Liquid) [J/K/mol] | molar heat capacity at constant pressure ([2]; 303.15 K, Liquid) [J/K/mol] | molar heat capacity at constant pressure ([2]; 308.15 K, Liquid) [J/K/mol] | molar heat capacity at constant pressure ([3]; 293.15 K, x2 = 0) [J/K/mol] | molar heat capacity at constant pressure ([3]; 298.15 K, x2 = 0) [J/K/mol] | molar heat capacity at constant pressure ([3]; 303.15 K, x2 = 0) [J/K/mol] | molar heat capacity at constant pressure ([3]; 308.15 K, x2 = 0) [J/K/mol] | speed of sound ([4]; 293.15 K, x2 = 0) [m/s] | mass density ([4]; 293.15 K, x2 = 0) [kg/m3] | speed of sound ([4]; 298.15 K, x2 = 0) [m/s] | mass density ([4]; 298.15 K, x2 = 0) [kg/m3] | also measured
CCCCn1cc[n+](C)c1C.F[B-](F)(F)F [1-butyl-2,3-dimethylimidazolium tetrafluoroborate] |  |  |  |  |  |  |  |  |  |  |  |  |  |  |  |  |  |  |  |  | speed of sound ([1]; 293.15 K, Metastable liquid): 1659.7 ± 1.5 m/s; mass density ([1]; 293.15 K, Metastable liquid): 1193.5 ± 2 kg/m3; speed of sound ([1]; 298.15 K, Metastable liquid): 1645.7 ± 1.5 m/s; mass density ([1]; 298.15 K, Metastable liquid): 1191.8 ± 2 kg/m3; speed of sound ([1]; 303.15 K, Metastable liquid): 1632.5 ± 1.5 m/s; mass density ([1]; 303.15 K, Metastable liquid): 1189.7 ± 2 kg/m3; speed of sound ([1]; 308.15 K, Metastable liquid): 1619.8 ± 1.5 m/s; mass density ([1]; 308.15 K, Metastable liquid): 1187.9 ± 2 kg/m3; molar heat capacity at constant pressure ([2]; 293.15 K, Metastable liquid): 413.03 ± 8.8 J/K/mol; molar heat capacity at constant pressure ([2]; 298.15 K, Metastable liquid): 416.01 ± 8.9 J/K/mol; molar heat capacity at constant pressure ([2]; 303.15 K, Metastable liquid): 418.84 ± 8.9 J/K/mol; molar heat capacity at constant pressure ([2]; 308.15 K, Metastable liquid): 421.7 ± 9 J/K/mol
CCCCn1cc[n+](C)c1.F[B-](F)(F)F [1-butyl-3-methylimidazolium tetrafluoroborate] | 1578.1 ± 1.7 | 1203.1 ± 2.1 | 1565.5 ± 1.7 | 1198.9 ± 2.1 | 1554.1 ± 1.7 | 1195.3 ± 2.1 | 1542.3 ± 1.7 | 1191.7 ± 2.1 | 362.35 ± 7.7 | 365.12 ± 7.8 | 367.48 ± 7.8 | 369.88 ± 7.9 |  |  |  |  |  |  |  |  | 
CCCCn1cc[n+](C)c1.F[B-](F)(F)F [1-butyl-3-methylimidazolium tetrafluoroborate] + CCCCn1cc[n+](C)c1C.F[B-](F)(F)F |  |  |  |  |  |  |  |  |  |  |  |  | 362.35 ± 7.7 | 365.12 ± 7.8 | 367.48 ± 7.8 | 369.88 ± 7.9 | 1578.1 ± 1.7 | 1203.1 ± 2.1 | 1565.5 ± 1.7 | 1198.9 ± 2.1 | speed of sound ([4]; 303.15 K, x2 = 0): 1554.1 ± 1.7 m/s; mass density ([4]; 303.15 K, x2 = 0): 1195.3 ± 2.1 kg/m3; speed of sound ([4]; 308.15 K, x2 = 0): 1542.3 ± 1.7 m/s; mass density ([4]; 308.15 K, x2 = 0): 1191.7 ± 2.1 kg/m3
CCCCn1cc[n+](C)c1.F[B-](F)(F)F [1-butyl-3-methylimidazolium tetrafluoroborate] + CCn1cc[n+](C)c1.F[B-](F)(F)F |  |  |  |  |  |  |  |  |  |  |  |  |  |  |  |  |  |  |  |  | molar heat capacity at constant pressure ([3]; 293.15 K, x1 = 1): 362.35 ± 7.7 J/K/mol; molar heat capacity at constant pressure ([3]; 298.15 K, x1 = 1): 365.12 ± 7.8 J/K/mol; molar heat capacity at constant pressure ([3]; 303.15 K, x1 = 1): 367.48 ± 7.8 J/K/mol; molar heat capacity at constant pressure ([3]; 308.15 K, x1 = 1): 369.88 ± 7.9 J/K/mol; speed of sound ([4]; 293.15 K, x1 = 1): 1578.1 ± 1.7 m/s; mass density ([4]; 293.15 K, x1 = 1): 1203.1 ± 2.1 kg/m3; speed of sound ([4]; 298.15 K, x1 = 1): 1565.5 ± 1.7 m/s; mass density ([4]; 298.15 K, x1 = 1): 1198.9 ± 2.1 kg/m3; speed of sound ([4]; 303.15 K, x1 = 1): 1554.1 ± 1.7 m/s; mass density ([4]; 303.15 K, x1 = 1): 1195.3 ± 2.1 kg/m3; speed of sound ([4]; 308.15 K, x1 = 1): 1542.3 ± 1.7 m/s; mass density ([4]; 308.15 K, x1 = 1): 1191.7 ± 2.1 kg/m3
CCn1cc[n+](C)c1.F[B-](F)(F)F [1-ethyl-3-methylimidazolium tetrafluoroborate] | 1631.1 ± 1.6 | 1283.9 ± 2 | 1619.2 ± 1.6 | 1279.9 ± 2 | 1607.4 ± 1.6 | 1276.3 ± 2 | 1596.2 ± 1.6 | 1272.1 ± 2 | 303.2 ± 6.5 | 304.53 ± 6.5 | 306.29 ± 6.5 | 308.03 ± 6.6 |  |  |  |  |  |  |  |  | 
CCn1cc[n+](C)c1.F[B-](F)(F)F [1-ethyl-3-methylimidazolium tetrafluoroborate] + CCCCn1cc[n+](C)c1C.F[B-](F)(F)F |  |  |  |  |  |  |  |  |  |  |  |  | 303.2 ± 6.5 | 304.53 ± 6.5 | 306.29 ± 6.5 | 308.03 ± 6.6 | 1631.1 ± 1.6 | 1283.9 ± 2 | 1619.2 ± 1.6 | 1279.9 ± 2 | speed of sound ([4]; 303.15 K, x2 = 0): 1607.4 ± 1.6 m/s; mass density ([4]; 303.15 K, x2 = 0): 1276.3 ± 2 kg/m3; speed of sound ([4]; 308.15 K, x2 = 0): 1596.2 ± 1.6 m/s; mass density ([4]; 308.15 K, x2 = 0): 1272.1 ± 2 kg/m3

— the NIST ThermoML archive (doi:10.1016/j.jct.2016.08.010)
